This is an account of results in patent US20240158438A1, “POLYPEPTIDE COMPOUND AND APPLICATION THEREOF” (CHENGDU SINTANOVO BIOTECHNOLOGY CO., LTD., priority 2021, published 2024).

One series addresses GHSR-1a (Homo sapiens (Human), UniProt Q92847). Description: Agonistic activity for GHSR-1a, FLIPR calcium assay. The conditions noted are these: agonist activity assay, Flp In-CHO-GHSR Stable Pool cells, FLIPR calcium 6 kit; read-out: The activity (IC50) of polypeptide compounds for GHSR-1a. The series is classed as cell-based. The source says: The use of recombinant expression of GHSR provides several advantages; for example, the receptor can be expressed in a determined cell system, so that it is easier to distinguish between the reactions of the compounds with GHSR and the reactions with other receptors. For example, cell lines such as HEK293, COS7 and CHO that […] can be used to express GHSR, and the same cell lines without expression vectors are used as controls.
The activity of GHSR-1a can be measured using different techniques, for example, by detecting the change in the intracellular conformation of GHSR, the change in G-protein coupling activity, and/or the change in intracellular messengers. Techniques such as measuring intracellular Ca^2+ are preferably used to measure the activity of GHSR-1a. Examples of techniques known in the art that can be used to measure Ca^2+ include the use of FLIPR® calcium ion assay kits, among others. The FLIPR® calcium ion assay kits use a calcium ion sensitive indicator and a masking dye to ensure that a researcher carries out high-sensitivity fluorescent screening for G protein-coupled receptors, ion channels and other calcium ion sensitive targets. This experiment used FLIPR calcium 6 assay kits and FLIPR calcium 6-QF assay kits.
• a) Cell line: Flp In-CHO-GHSR Stable Pool; • b) Complete medium: F12K+10% fetal bovine serum+1×penicillin-streptomycin (PS)+600 μg/mL hygromycin B; • c) Cell seeding medium: F12K+10% fetal bovine serum. • d) Assay buffer: 1× HBSS+20 mM HEPES. • e) […] component A: Assay buffer and component A were left at room temperature (RT), 10 mL of buffer was added to component A, and the mixture was vortexed for 1-2 min and stored at −20° C.
• a) Compound stock solutions: the powders from in-house synthesis were made into 10 mM stock solutions in DMSO according to the standard protocol. • b) Compound storage: all compounds in DMSO were stored in room temperature desiccators for short-term storage (at most 4 months). The remaining compounds were left at −20 ° C. for long-term storage.
• a) Flp In-CHO-GHSR Stable Pool cells were cultured in complete medium. • b) The cells were placed in […] cell seeding medium in a 384-well cell culture plate (Corning, 3764) at 7k cells/well and cultured overnight at 37° C. with 5% CO2. • c) 20× component A was thawed at room temperature, diluted with assay buffer to 2×, and left at RT. • d) The Petri dish was taken out of the incubator and equilibrated at room temperature for 10 min. The medium was changed to […]. After the final wash, 20 μL of buffer was kept in each well, 20 μL of 2× component A was then added to each well, and the plate was incubated at 37° C. for 3-5 s. • e) 10 μL of 5× compound was added to the 384-well cell culture plate, and data collection was immediately performed using FLIPR Tetra.
• 1) Z′ factor=1−3×(SDMax+SDMin)/(MeanMax−MeanMin); • 2) CVMax=(SDMax/MeanMax)×100%; • 3) CVMin=(SDMin/MeanMin)×100%; • 4) S/B=Singal/Background; • 5) Calculation formula for IC50: • Y=Bottom+(Top−Bottom)/(1+10^((LogIC50−X)×HillSlope)) • X: log value of compound concentration; Y: Activation % or Inhibition %

In a further series the target is CYP1A2 (Homo sapiens (Human), UniProt P05177). The experiment in a line: in vitro. The series is classed as in vitro ADME. The conditions noted are these: microsomes; for IC50: 10 min. As for the experimental part: (§1) Human liver microsomes containing cytochrome P450 (0.253 mg/mL protein) were incubated with test compounds (0.05-50 μM), CYPs substrates (10 μM […], 5 μM diclofenac, 30 μM mephenytoin, 5 μM dextromethorphan hydrobromide and 2 μM midazolam) and 1.0 mM NADP at 37° C. for 10 min. Naphthoflavone, sulfaphenazole, N-3-benzylnirvanol, quinidine and ketoconazole were used as reference inhibitors.
Chain of CYP1A2 (P05177 whole entry): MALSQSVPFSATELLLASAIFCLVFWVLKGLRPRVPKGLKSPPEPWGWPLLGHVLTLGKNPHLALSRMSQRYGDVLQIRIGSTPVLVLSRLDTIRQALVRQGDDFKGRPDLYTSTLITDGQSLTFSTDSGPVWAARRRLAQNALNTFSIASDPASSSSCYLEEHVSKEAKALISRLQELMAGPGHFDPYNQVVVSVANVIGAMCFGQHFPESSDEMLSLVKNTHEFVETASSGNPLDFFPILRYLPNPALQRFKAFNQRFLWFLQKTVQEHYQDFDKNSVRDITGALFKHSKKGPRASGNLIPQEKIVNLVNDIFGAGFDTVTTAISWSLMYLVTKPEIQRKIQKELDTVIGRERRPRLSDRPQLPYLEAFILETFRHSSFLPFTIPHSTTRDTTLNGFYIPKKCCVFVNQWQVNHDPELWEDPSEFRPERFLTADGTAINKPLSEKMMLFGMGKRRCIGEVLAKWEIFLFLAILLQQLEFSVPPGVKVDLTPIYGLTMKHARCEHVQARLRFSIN

The target in the next series is CYP 3A4 (Homo sapiens (Human), UniProt P08684). The series is classed as in vitro ADME. The conditions noted are these: microsomes, 10 min. As for the experimental part: as §1
Chain of CYP 3A4 (P08684 whole entry): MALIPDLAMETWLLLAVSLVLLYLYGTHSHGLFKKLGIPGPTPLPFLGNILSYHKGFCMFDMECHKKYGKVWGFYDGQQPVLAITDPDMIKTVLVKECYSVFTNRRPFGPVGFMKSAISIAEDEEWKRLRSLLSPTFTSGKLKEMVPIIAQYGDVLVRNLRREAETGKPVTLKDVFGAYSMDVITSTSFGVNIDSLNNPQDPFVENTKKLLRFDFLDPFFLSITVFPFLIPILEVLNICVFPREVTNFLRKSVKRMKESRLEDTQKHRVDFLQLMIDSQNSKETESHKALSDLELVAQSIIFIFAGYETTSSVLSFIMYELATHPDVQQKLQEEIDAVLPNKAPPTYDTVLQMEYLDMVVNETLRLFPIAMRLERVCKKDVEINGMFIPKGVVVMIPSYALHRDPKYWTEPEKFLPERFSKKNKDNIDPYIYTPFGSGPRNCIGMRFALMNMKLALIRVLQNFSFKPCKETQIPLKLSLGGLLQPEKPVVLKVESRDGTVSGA
Another series deals with CYP 2C9 (Homo sapiens (Human), UniProt P11712). The series is classed as in vitro ADME. Conditions: microsomes, 10 min. On the procedure:
as §1

For a further series, the target named is CYP 2D6 (Homo sapiens (Human), UniProt P10635). The format is in vitro ADME. The conditions noted are these: microsomes, 10 min. On the procedure: as §1
Chain of CYP 2D6 (P10635 whole entry): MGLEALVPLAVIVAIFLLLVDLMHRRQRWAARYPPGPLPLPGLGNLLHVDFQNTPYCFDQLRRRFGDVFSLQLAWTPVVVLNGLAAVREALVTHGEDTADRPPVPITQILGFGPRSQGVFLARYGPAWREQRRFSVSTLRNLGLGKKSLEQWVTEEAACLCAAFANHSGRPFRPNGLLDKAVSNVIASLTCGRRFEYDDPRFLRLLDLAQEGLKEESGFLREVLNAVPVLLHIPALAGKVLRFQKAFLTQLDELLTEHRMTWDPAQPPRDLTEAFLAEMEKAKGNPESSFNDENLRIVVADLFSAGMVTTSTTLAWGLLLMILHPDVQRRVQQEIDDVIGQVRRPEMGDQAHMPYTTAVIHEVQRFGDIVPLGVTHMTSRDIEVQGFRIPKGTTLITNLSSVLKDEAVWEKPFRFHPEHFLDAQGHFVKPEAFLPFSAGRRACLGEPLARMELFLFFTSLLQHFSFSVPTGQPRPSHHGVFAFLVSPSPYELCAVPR
The next series deals with CYP 2C19 (Homo sapiens (Human), UniProt P33261). The series is classed as in vitro ADME. The conditions noted are these: microsomes, 10 min. As for the experimental part: as §1
Chain of CYP 2C19 (P33261 whole entry): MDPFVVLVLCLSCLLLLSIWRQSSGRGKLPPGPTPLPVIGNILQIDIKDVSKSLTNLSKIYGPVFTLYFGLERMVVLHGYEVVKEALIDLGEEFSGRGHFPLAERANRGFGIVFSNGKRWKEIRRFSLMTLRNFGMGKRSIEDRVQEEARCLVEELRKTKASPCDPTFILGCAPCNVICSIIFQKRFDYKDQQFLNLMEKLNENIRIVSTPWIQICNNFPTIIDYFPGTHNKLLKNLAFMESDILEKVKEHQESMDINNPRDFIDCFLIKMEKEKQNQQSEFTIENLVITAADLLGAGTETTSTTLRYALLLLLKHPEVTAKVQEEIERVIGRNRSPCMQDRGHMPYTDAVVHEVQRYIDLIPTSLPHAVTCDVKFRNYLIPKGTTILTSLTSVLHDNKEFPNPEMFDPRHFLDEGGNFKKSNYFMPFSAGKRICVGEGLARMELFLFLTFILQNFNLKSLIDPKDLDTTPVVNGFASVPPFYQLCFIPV

Starred links: 1 amine or outer side, 2 acyl side, 3 side chain; linkers in the order of their positions; H or OH if unused. Non-standard residues stand in square brackets, D forms with d. Residues, ends and D or L forms follow the SMILES beside them. *: point of attachment. Azetidine3carboxylic = O=C(C1CN([*:1])C1)[*:2]; Pyrrolidine3carbonyl(3S) = O=C([C@H]1CCNC1)*; dBta = N[C@H](Cc1csc2ccccc12)C(=O)O; Tle = CC(C)(C)[C@H](N)C(=O)O; X1 = N[C@H]1CCC[C@H]1C(=O)*; dAbu = CC[C@@H](N)C(=O)O; Api = NC1(C(=O)O)CCNCC1; X3 = NCC1(C(=O)*)CCC1; βAla = NCCC(=O)O

Chain of GHSR-1a (Q92847 whole entry): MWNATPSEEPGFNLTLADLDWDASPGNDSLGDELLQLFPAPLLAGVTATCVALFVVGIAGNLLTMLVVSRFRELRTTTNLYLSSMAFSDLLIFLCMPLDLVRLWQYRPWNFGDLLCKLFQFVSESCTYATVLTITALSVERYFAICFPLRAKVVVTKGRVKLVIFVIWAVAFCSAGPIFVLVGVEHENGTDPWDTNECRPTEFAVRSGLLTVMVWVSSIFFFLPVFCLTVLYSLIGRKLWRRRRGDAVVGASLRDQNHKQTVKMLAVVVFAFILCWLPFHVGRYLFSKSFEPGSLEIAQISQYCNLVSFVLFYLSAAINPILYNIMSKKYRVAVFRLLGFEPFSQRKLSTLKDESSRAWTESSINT
Chain of CYP 2C9 (P11712 whole entry): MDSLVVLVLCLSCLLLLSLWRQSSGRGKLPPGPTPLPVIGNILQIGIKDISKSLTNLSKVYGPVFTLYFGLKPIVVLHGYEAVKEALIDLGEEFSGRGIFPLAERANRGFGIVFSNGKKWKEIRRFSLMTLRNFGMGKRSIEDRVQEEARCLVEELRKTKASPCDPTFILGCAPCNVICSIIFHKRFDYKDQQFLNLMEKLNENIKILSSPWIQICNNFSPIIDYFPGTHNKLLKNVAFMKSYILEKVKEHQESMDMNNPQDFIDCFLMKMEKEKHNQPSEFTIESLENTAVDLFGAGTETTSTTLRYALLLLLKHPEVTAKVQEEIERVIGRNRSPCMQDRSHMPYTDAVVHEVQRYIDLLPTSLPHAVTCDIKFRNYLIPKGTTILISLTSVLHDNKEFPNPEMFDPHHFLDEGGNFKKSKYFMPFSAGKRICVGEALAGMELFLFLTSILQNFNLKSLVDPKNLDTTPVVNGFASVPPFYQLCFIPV

On to `CC(C)(C)[C@H](N)C(=O)N[C@H](Cc1csc2ccccc12)C(=O)N[C@H](Cc1c[nH]c2ccccc12)C(=O)N[C@@H](Cc1ccccc1)C(=O)N[C@H](CCCCN)C(N)=O` [Compound 48] (H-[Tle][dBta][dW]F[dK]-NH2), for which the IC50 was 0.0121 µM on GHSR-1a; greater than 50 µM at CYP1A2; greater than 50 µM on CYP 3A4; greater than 50 µM at CYP 2C9; greater than 50 µM on CYP 2D6; greater than 50 µM at CYP 2C19.
Turning to `NCC1(C(=O)N[C@H](Cc2csc3ccccc23)C(=O)N[C@H](Cc2c[nH]c3ccccc23)C(=O)N[C@@H](Cc2ccccc2)C(=O)NC2(C(N)=O)CCNCC2)CCC1` [Compound 22] (X3-[dBta][dW]F[Api]-NH2), the IC50 on GHSR-1a is 0.0023 µM; against CYP1A2, greater than 50 µM; against CYP 3A4, greater than 50 µM; against CYP 2C9, greater than 50 µM; at CYP 2D6, greater than 50 µM; at CYP 2C19 it was greater than 50 µM.
As for `NCCCC[C@@H](NC(=O)[C@H](Cc1ccccc1)NC(=O)[C@@H](Cc1c[nH]c2ccccc12)NC(=O)[C@@H](Cc1csc2ccccc12)NC(=O)[C@@H]1CCC[C@@H]1N)C(N)=O` [Compound 51] (X1-[dBta][dW]F[dK]-NH2), the concentration for half-maximal inhibition (IC50) on GHSR-1a was 0.0032 µM; on CYP1A2, greater than 50 µM; at CYP 3A4, greater than 50 µM; at CYP 2C9, greater than 50 µM; against CYP 2D6 it was greater than 50 µM; at CYP 2C19, greater than 50 µM.
Regarding `NC(=O)[C@H](Cc1ccccc1)NC(=O)[C@@H](Cc1c[nH]c2ccccc12)NC(=O)[C@@H](Cc1csc2ccccc12)NC(=O)[C@H]1CCNC1` [Compound 76], the IC50 is 0.0039 µM on GHSR-1a; greater than 50 µM at CYP 3A4; greater than 50 µM at CYP 2C9; greater than 50 µM against CYP 2D6; greater than 50 µM on CYP 2C19. In addition, at CYP1A2, the IC50 at 10 min is greater than 50 µM.
Turning to `NCCCC[C@@H](NC(=O)[C@H](Cc1ccccc1)NC(=O)[C@@H](Cc1c[nH]c2ccccc12)NC(=O)[C@@H](Cc1csc2ccccc12)NC(=O)[C@@H]1CCCN1)C(N)=O` [Compound 45] (H-P[dBta][dW]F[dK]-NH2), the IC50 was 0.0051 µM on GHSR-1a; greater than 50 µM against CYP1A2; greater than 50 µM against CYP 3A4; greater than 50 µM on CYP 2C9; greater than 50 µM against CYP 2D6; greater than 50 µM against CYP 2C19.
Take `NC(=O)C1(NC(=O)[C@H](Cc2ccccc2)NC(=O)[C@@H](Cc2c[nH]c3ccccc23)NC(=O)[C@@H](Cc2csc3ccccc23)NC(=O)[C@@H]2CCCN2)CCNCC1` [Compound 15] (H-P[dBta][dW]F[Api]-NH2): the IC50 at GHSR-1a is 0.0023 µM; at CYP1A2, greater than 50 µM; at CYP 3A4 it was 8.82 µM; on CYP 2C9 it was greater than 50 µM; at CYP 2D6, 31.1 µM; on CYP 2C19, greater than 50 µM.
For the compound `NCC(=O)N[C@H](Cc1csc2ccccc12)C(=O)N[C@H](Cc1c[nH]c2ccccc12)C(=O)N[C@@H](Cc1ccccc1)C(=O)NC1(C(N)=O)CCNCC1` [Compound 11] (H-G[dBta][dW]F[Api]-NH2), the IC50 on GHSR-1a was 0.0203 µM; on CYP1A2, greater than 50 µM; against CYP 3A4, 33.4 µM; on CYP 2C9, greater than 50 µM; against CYP 2D6, greater than 50 µM; on CYP 2C19, greater than 50 µM.
Take `CC(C)C[C@@H](N)C(=O)N[C@H](Cc1csc2ccccc12)C(=O)N[C@H](Cc1c[nH]c2ccccc12)C(=O)N[C@@H](Cc1ccccc1)C(=O)NC1(C(N)=O)CCNCC1` [Compound 14] (H-[dL][dBta][dW]F[Api]-NH2): the IC50 on GHSR-1a was 0.0332 µM; on CYP1A2, greater than 50 µM; against CYP 3A4, greater than 50 µM; at CYP 2C9 it was greater than 50 µM; on CYP 2D6, greater than 50 µM; against CYP 2C19 it was greater than 50 µM.
For `NCCCC[C@@H](NC(=O)[C@H](Cc1ccccc1)NC(=O)[C@@H](Cc1c[nH]c2ccccc12)NC(=O)[C@@H](Cc1csc2ccccc12)NC(=O)[C@H]1CCNC1)C(N)=O` [Compound 56] ({Pyrrolidine3carbonyl(3S)}-[dBta][dW]F[dK]-NH2), the IC50 is 0.0055 µM on GHSR-1a; greater than 50 µM on CYP1A2; greater than 50 µM at CYP 3A4; greater than 50 µM against CYP 2C9; greater than 50 µM against CYP 2D6; greater than 50 µM against CYP 2C19.
Regarding `CC(C)[C@@H](N)C(=O)N[C@H](Cc1csc2ccccc12)C(=O)N[C@H](Cc1c[nH]c2ccccc12)C(=O)N[C@@H](Cc1ccccc1)C(=O)NC1(C(N)=O)CCNCC1` [Compound 13] (H-[dV][dBta][dW]F[Api]-NH2), the IC50 is 0.0435 µM on GHSR-1a; greater than 50 µM on CYP1A2; greater than 50 µM on CYP 3A4; greater than 50 µM at CYP 2C9; greater than 50 µM against CYP 2D6; greater than 50 µM on CYP 2C19.
Consider `CC[C@@H](N)C(=O)N[C@H](Cc1csc2ccccc12)C(=O)N[C@H](Cc1c[nH]c2ccccc12)C(=O)N[C@@H](Cc1ccccc1)C(=O)N[C@H](CCCCN)C(N)=O` [Compound 32] (H-[dAbu][dBta][dW]F[dK]-NH2), for which the IC50 is 0.0024 µM on GHSR-1a; greater than 50 µM against CYP1A2; 2.55 µM against CYP 3A4; greater than 50 µM on CYP 2C9; 24.8 µM against CYP 2D6; greater than 50 µM against CYP 2C19.
For `NC(=O)[C@H](Cc1ccccc1)NC(=O)[C@@H](Cc1c[nH]c2ccccc12)NC(=O)[C@@H](Cc1csc2ccccc12)NC(=O)[C@@H]1CCC[C@@H]1N` [Compound 71], the IC50 on GHSR-1a was 0.0033 µM; against CYP 3A4, greater than 50 µM; on CYP 2C9, greater than 50 µM; against CYP 2D6, greater than 50 µM; against CYP 2C19 it was greater than 50 µM. In addition, on CYP1A2, the IC50 at 10 min is greater than 50 µM.
Turning to `NCCCC[C@@H](NC(=O)[C@H](Cc1ccccc1)NC(=O)[C@@H](Cc1c[nH]c2ccccc12)NC(=O)[C@@H](Cc1csc2ccccc12)NC(=O)C1CNC1)C(N)=O` [Compound 53] (Azetidine3carboxylic-[dBta][dW]F[dK]-NH2), the IC50 on GHSR-1a was 0.0112 µM; at CYP1A2, greater than 50 µM; against CYP 3A4, greater than 50 µM; against CYP 2C9 it was greater than 50 µM; on CYP 2D6, greater than 50 µM; at CYP 2C19, greater than 50 µM.
On to `CC[C@@H](N)C(=O)N[C@H](Cc1csc2ccccc12)C(=O)N[C@H](Cc1c[nH]c2ccccc12)C(=O)N[C@@H](Cc1ccccc1)C(=O)NC1(C(N)=O)CCNCC1` [Compound 2] (H-[dAbu][dBta][dW]F[Api]-NH2), for which the IC50 on GHSR-1a is 0.0035 µM; against CYP1A2 it was greater than 50 µM; at CYP 3A4, 20 µM; against CYP 2C9 it was greater than 50 µM; at CYP 2D6 it was greater than 50 µM; on CYP 2C19, greater than 50 µM.
As for `NCCC(=O)N[C@H](Cc1csc2ccccc12)C(=O)N[C@H](Cc1c[nH]c2ccccc12)C(=O)N[C@@H](Cc1ccccc1)C(=O)NC1(C(N)=O)CCNCC1` [Compound 16] (H-[βAla][dBta][dW]F[Api]-NH2), the IC50 at GHSR-1a is 0.0007 µM; at CYP1A2, greater than 50 µM; on CYP 3A4 it was 19.8 µM; at CYP 2C9 it was greater than 50 µM; against CYP 2D6, 35.4 µM; on CYP 2C19, greater than 50 µM.
